Measured values published in US10722467B2, “Remote loading of sparingly water-soluble drugs into liposomes” (ZONEONE PHARMA, INC., priority 2013, dated 2020).
Each block holds one compound with its values, some of them ahead of it.

Legend:
Assay type in all cases: physicochemical
[1] = Reverse gradient-directed drug release from liposomes
Procedure: Liposomes were loaded with carfilzomib as described in Example 1 and were purified into deionized water. The sample was divided into two aliquots. To the first aliquot, concentrated Hepes pH 7.4 and NaCl was added so that the final concentration was 5 mM Hepes, 145 mM NaCl (HBS). To the second aliquot, concentrated ammonium sulfate was added so that the final concentration was 250 mM. No obvious physical changes were initially observed. The samples were then heated at 65° C. for 30 min. The samples were transferred to clean eppendorf tubes and centrifuged for 10,000 rpm for 5 min after which the supernatants and precipitates were separated and tested for carfilzomib content by HPLC assay. Released drug precipitated, liposome encapsulated drug remained in the supernatant. The % carfilzomib released was calculated by […]

[2] = Light scattering at 600 nm during carfilzomib loading
Procedure: Liposomes containing 250 mM ammonium sulfate as trapping agent and 250 mM sodium sulfate as control liposomes which would not remote load drug. The liposomes were prepared and loaded using the procedure described in Example 1 except a disposable polystyrene cuvette was used as the reaction vessel. The scattering of light at 600 nm was measured with a UV/vis spectrophotometer during the loading process.

[3] = Remote loading of carfilzomib into liposomes (drug/lipid ratio and loading efficiency by HPLC); conditions: for efficiency of loading: 100 g drug/mol HSPC
Procedure: Ammonium sulfate solution was prepared by dissolving ammonium sulfate solid to a final concentration of 250 mM (500 mequivilents of anion/L) no pH adjustment was made to yield a final pH of 5.6. Sodium sulfate solution (250 mM) was prepared by adding 0.35 g sodium sulfate to 10 mL deionized water.
The liposomes were formed by extrusion. Lipids were dissolved in ethanol at a concentration of 500 mM HSPC (591 mg/mL total lipid) at 65° C. and the 9 volumes of the trapping agent solution heated to 65° C. was added to the ethanol/lipid solution also at 65° C. The mixture was vortexed and transferred to a 10 mL thermostatically controlled (65° C.) Lipex Extruder. The liposomes were formed by extruding 10 times through polycarbonate membranes having 0.1 um pores. After extrusion the liposomes were cooled on ice. The transmembrane electrochemical gradient was formed by purification of the liposomes by dialysis in dialysis tubing having a molecular weight cut off of 12,000-14,000. The samples are dialyzed against 5 mM HEPES, 10% sucrose pH 6.5 (stirring at 4° C.) at volume that is 100 fold greater than the sample volume. The dialysate was changed after 2 h then 4 more times after 12 h each. The conductivity of the liposome solution was measured and was indistinguishable from the dialysis medium ˜40 μS/cm.
(§1) The lipid concentration is determined by measuring the cholesterol by HPLC using an Agilent 1100 HPLC with and Agilent Zorbax 5 um, […], Eclipse XDB-C8 column and a mobile phase of A=0.1% TFA, B=0.1% TFA/MeOH with an isocratic elution of 99% B. The flow rate is 1.0 mL/min, column temperature is 50° C., 10 μL injection and detection by absorbance at 205 nm. The retention time of cholesterol is 4.5 min. The liposome size is measured by dynamic light scattering.
Carfilzomib (Selleck Chemicals) was dissolved in DMSO at a concentration of 10 mg/mL. […] The liposomes were diluted with 50 mM citrate, 10% sucrose pH 4.0 to increase the volume to a point where after addition of the drug the final DMSO concentration is 2%. The carfilzomib/DMSO was added to the diluted liposomes, which were mixed at room temperature then transferred to a 65° C. bath and swirled every 30 s for the first 3 min and then swirled every 5 min over a total heating time of 30 min. All samples were very cloudy when the drug was added and all became clear (same as liposomes with no drug added) after 15 min. After heating for 30 min all samples were placed on ice for 15 min. The loaded liposomes were vortexed and 100 μL of sample was kept as the “before column” and the rest transferred to microcentrifuge tubes and spun at 10,000 RPM for 5 min. The supernatants were purified on a Sephadex G25 column collected and analyzed by HPLC. The HPLC analysis of carfilzomib was performed on the same system as described for analysis of cholesterol. The mobile phase consists of A=0.1% TFA, B=0.1% TFA/MeOH with a gradient elution starting at 50% B and increasing to 83% B in 13 min with 7 min equilibration back to 50% B. The flow rate is 1.0 mL/min, column temperature is 30 C, 10 μl injection and detection by absorbance at 205 nm. The retention time of carfilzomib is 12.2 min. The lipid concentration is determined by analysis of the cholesterol by HPLC. […]
Napthelenedisulfonic acid (NDS) was dissolved in water and titrated with diethylamine to a final pH of 8.0 and concentration of 250 mM (500 mequivilents of anion/L). […]
To ensure complete removal of the DMSO added with carfilzomib, the liposomal carfilzomib samples were dialyzed in dialysis tubing having a molecular weight cut off of 12,000-14,000. The samples are dialyzed against 5 mM HEPES, 10% sucrose pH 6.5 (stirring at 4° C.) at volume that is 100 fold greater than the sample volume. The dialysate was changed after 2 h then 2 more times after 12 h each. The carfilzomib liposomes were again analyzed for drug and lipid concentration as described above. […]

[4] = Liposome size by dynamic light scattering; conditions: carfilzomib-loaded liposomes, before lyophilizing
Procedure: as §1
See Example 1, Carfilzomib liposome entrapment by remote loading for details on how the liposomes were made, purified and characterized.

[5] = Carfilzomib solubility as a function of DMSO content (optical density at 600 nm); conditions: drug 0.2 mg/mL
Procedure: Carfilzomib was added from a stock 10 mg/mL solution in DMSO to 1 mL of a citric acid/DMSO mixture so that the composition of DMSO was 2%, 25%, 50%, 75% and 100%. The final drug concentration was 0.2 mg/mL. The solutions were prepared and measured for optical density at 600 nm. The optical density at 600 nm is a good measure of how turbid or how much scattering material (such as drug precipitates) are in a solution, generally, the more precipitates the higher the absorbance. From FIG. 8 is apparent that at DMSO concentrations below 50% vol/vol (25° C.) and 25% vol/vol (65° C.) the drug remains in a precipitated form. Only when the concentration of DMSO is increased does it become effectively solubilized at this concentration of 0.2 mg/mL.

[6] = Remote loading of aripiprazole into liposomes
Procedure: Liposomes (HSPC/Chol/PEG-DSPE 3/2/0.15 mol/mol/mol) containing 250 mM ammonium sulfate or 250 mM sodium sulfate were diluted in 1 mL of 50 mM citric acid, 10% (wt/wt) sucrose, pH 4.0 to a concentration of 6 mM phospholipid. 0.3 mg of aripiprazole was added from a stock solution of 15 mg/mL in DMSO, so that the final DMSO concentration was 2% (v/v). Fine precipitates were immediately observed after the drug was added to both liposome samples. The samples were heated at 65° C. for 30 min, the cooled on ice. The samples were filtered through a 0.2 um polyethersulfone syringe filter to remove any drug precipitates, followed by purification on a Sephadex G25 column equilibrated with HBS, pH 6.5 to remove any soluble extraliposome drug. The turbid fraction was collected and analyzed for lipid and drug as described above.

[7] = Aripiprazole precipitates from various solvents with liposomes, absorbance at 600 nm; conditions: drug initially dissolved in DMSO, 1-4-methylpyrrolidone, diethylenemonoethylether or polyethyleneglycol (MW400); 7.5% solvent; ammonium sulfate liposomes; 65°C 30 min
Procedure: Aripiprazole was dissolved in a range of solvents indicated below at 4 mg/mL. Liposomes composed of HSPC/Chol/PEG-DSPE (3/2/0.15 mol/mol/mol) that were prepared in 250 mM ammonium sulfate were used and diluted to 6 mM in Hepes buffered sucrose 10% (wt/wt) (HBSuc pH 6.5). 0.3 mg of drug was introduced by slow addition of each solvent while vortexing. The final solvent concentration was 7.5% for all samples. As controls, the drug was added from each solvent to the same volume of HBSuc pH 6.5 without the liposomes. The samples were heated at 65° C. for 30 min then cooled on ice.

[8] = 500 mM ammonium sulfate liposomes, highest input ratio of Example 10
[9] = [(NH4)2SO4] 250 mM, input drug/HSPC 167.3 g/mol

drug released with reverse gradient vs control with no reverse gradient ([1]; ammonium sulfate vs Hepes buffered saline): 6.5 fold
time to clarification of the solution ([2]; 250 mM ammonium sulfate liposomes, light scattering at 600 nm during loading): ≤ 15 min
drug/carrier total lipid weight ratio (highest reached) [3, 8]: 0.4
final drug payload (highest reached) [3, 8]: 469±4.9 g drug/mol HSPC
final drug to lipid ratio ([3]; 500 mM ammonium sulfate, input 639 g drug/mol HSPC): 440±10.2 g drug/mol HSPC
remote loading ([3]; DMSO absent): practically no loading
Drug payload/carrier weight ratio ([3]; [(NH4)2SO4] 250 mM, input drug/HSPC 91.8 g/mol): 0.07 g drug/g total lipid
Drug payload/carrier weight ratio [3, 9]: 0.11 g drug/g total lipid
efficiency [3, 9]: 76.0%
Drug payload/carrier weight ratio ([3]; [(NH4)2SO4] 250 mM, input drug/HSPC 251.8 g/mol): 0.15 g drug/g total lipid
Drug payload/carrier weight ratio ([3]; [(NH4)2SO4] 250 mM, input drug/HSPC 338.1 g/mol): 0.18 g drug/g total lipid
Drug payload/carrier weight ratio ([3]; [(NH4)2SO4] 250 mM, input drug/HSPC 432.8 g/mol): 0.20 g drug/g total lipid
Drug payload/carrier weight ratio ([3]; [(NH4)2SO4] 500 mM, input drug/HSPC 450.6 g/mol): 0.29 g drug/g total lipid
Drug payload/carrier weight ratio ([3]; [(NH4)2SO4] 500 mM, input drug/HSPC 545.9 g/mol): 0.32 g drug/g total lipid
Drug payload/carrier weight ratio ([3]; [(NH4)2SO4] 500 mM, input drug/HSPC 639.2 g/mol): 0.37 g drug/g total lipid
Drug payload/carrier weight ratio ([3]; [(NH4)2SO4] 500 mM, input drug/HSPC 758.7 g/mol): 0.40 g drug/g total lipid
efficiency of loading ([3]; drug from 10 mg/mL DMSO solution added in 5 increments over 1 min while vortexing): 96.3%±1.09%
efficiency of loading ([3]; drug from 10 mg/mL DMSO solution added quickly, 2% DMSO): 97.0%±2.38%
loading capacity, remote loaded (ammonium sulfate) vs sodium sulfate liposomes ([3]; drug input below/at 100 g drug/mol HSPC): > 3 fold
effect of time between precipitate formation and loading on loading efficiency ([3]; liposomes added immediately, after 1 h or 12 h delay): does not have a significant impact
PDI ([4]; trapping agent (NH4)2SO4, drug added quickly): 0.062
PDI ([4]; trapping agent (NH4)2SO4, drug added slowly): 0.035
PDI ([4]; trapping agent mellitic acid): 0.08
PDI ([4]; trapping agent napthelenedisulfonic acid): 0.039
DMSO concentration below which the drug remains in a precipitated form ([5]; 25°C): below 50 % vol/vol
DMSO concentration below which the drug remains in a precipitated form ([5]; 65°C): < 25 % vol/vol
DMSO required to completely dissolve the drug ([5]; 65°C, citric acid/DMSO mixture): > 25 % vol/vol
Compound: CC(C)C[C@H](NC(=O)[C@H](CCc1ccccc1)NC(=O)CN1CCOCC1)C(=O)N[C@@H](Cc1ccccc1)C(=O)N[C@@H](CC(C)C)C(=O)[C@@]1(C)CO1 [carfilzomib]
degradation of released drug by HPLC chromatogram ([1]; after loading and release from liposomes, compared with starting material): no degradation of carfilzomib had taken place
clarification of the precipitate during loading ([2]; 250 mM sodium sulfate control liposomes, light scattering at 600 nm): do not show any clarification of the precipitate

loading efficiency ([6]; drug introduced as SBCD complex (from the pharmaceutical product Abilify), same concentration and loading conditions): 68%
Fold Increase NH4SO4/NaSO4 ([6]; loading into ammonium sulfate vs sodium sulfate liposomes): 49.3 fold
clarification of drug precipitate with liposomes (absorbance at 600 nm) [7]: clarified the drug precipitate
Compound: O=C1CCc2ccc(OCCCCN3CCN(c4cccc(Cl)c4Cl)CC3)cc2N1 [aripiprazole]
